Marks after values point to notes of the source that are not given here.
Columns and labels:
GLUT-1 [1] = assay: Cerebral GLUT-1 expression in type-1 diabetes induced rats; assay type: in vivo, Wistar rats; settings: STZ rats, daily for 26 days; control = 100.00
Description: (§1) Forty-two Wistar rats were assigned to one of 6 experimental groups: 1) positive control: rats injected with saline 2) type-1 diabetes group: rats injected with streptozotocin (STZ, 65 mg/kg i.p.) to damage beta cells (n=35). Diabetic rats were then administered with a) none, b) Zn alone (6.23 μg ZnO), c) Cr alone (47.7 μg Cr-histidinate), d) Zn-insulin (6.23 μg ZnO+3 IU Ins/100 g BW), or e) Cr-insulin (47.7 μg Cr-histidinate+3 IU Ins/100 g BW), daily for 26 days (n=7 per subgroup). Body weights were measured at the beginning and end of the experiment.
(§2) Blood samples were collected on days—2 (beginning), 0 (induction), 4, 6, 12, and 26 for blood biochemistry. At the end of the experiment, rats were sacrificed for brain tissue GLUTs (1 and 3). Data were analyzed using one-way ANOVA with LSD option for mean comparison.

[2] = system: OCT-1 (organic cation transporter 1); assay: Kidney OCT-1 levels in type-1 diabetes induced rats; assay type: in vivo, Wistar rats; settings: bands, STZ rats, n = 7; control = 100.00 (percentage of control)
[3] = Body weight of type-1 diabetes induced rats (Example 8); assay type: in vivo, Wistar rats; settings: Example 8, STZ rats, n = 7; for Initial BW: before treatment; for BW Change / Final BW: daily for 26 days
Description: as §1, §2

[4] = Blood biochemistry of type-1 diabetes induced rats at the end of the experiment; assay type: in vivo, Wistar rats; settings: STZ rats, daily for 26 days
Description: as §1, §2

GLUT-3 [5] = assay: Cerebral GLUT-3 expression in type-1 diabetes induced rats; assay type: in vivo, Wistar rats; settings: STZ rats, daily for 26 days; control = 100.00
Description: Forty-two Wistar rats were assigned to one of 6 experimental groups: 1) positive control: rats injected with saline 2) type-1 diabetes group: rats injected with streptozotocin (STZ, 65 mg/kg i.p.) to damage beta cells (n=35). Diabetic rats were then administered with a) none, b) Zn alone (6.23 μg ZnO), c) Cr alone (47.7 μg Cr-histidinate), d) Zn-insulin (6.23 μg ZnO+3 IU Ins/100 g BW), or e) Cr-insulin (47.7 μg Cr-histidinate+3 IU Ins/100 g BW), daily for 26 days (n=7 per subgroup).
At the end of the experiment, rats were sacrificed for brain tissue GLUTs (1 and 3). Data were analyzed using one-way ANOVA with LSD option for mean comparison.

[6] = Glucose pattern before and after injection in type-1 diabetes induced rats; assay type: in vivo, Wistar rats; settings: STZ rats; for Glucose, Day 4, After / Glucose, Day 6, After / Glucose, Day 12, After / Glucose, Day 21, After: after injection; for Glucose, Day 4, After / Glucose, Day 4, Before: no unit in table (mg/dl); for Glucose, Day 6, After / Glucose, Day 12, After / Glucose, Day 21, After / Glucose, Day 6, Before / Glucose, Day 12, Before / Glucose, Day 21, Before: no unit in table; for Glucose, Day 4, Before / Glucose, Day 6, Before / Glucose, Day 12, Before / Glucose, Day 21, Before: before injection
Description: as §1, §2

OCT-2 = assay: Kidney OCT-2 levels in type-1 diabetes induced rats; assay type: in vivo, Wistar rats; settings: bands, STZ rats, n = 7; control = 100.00
insulin = assay: Brain insulin levels in type-1 diabetes induced rats; assay type: in vivo, Wistar rats; settings: bands, STZ rats, n = 7; control = 100.00
Description: as §1, §2

[7] = Serum and brain chromium in type-1 diabetes induced rats; settings: STZ rats, n = 7; footnote: daily for 8 weeks
Description: as §1, §2

[8] = system: MRP2 (multidrug resistance protein 2); assay: Kidney MRP2 levels in type-1 diabetes induced rats; settings: bands, STZ rats, n = 7; control = 100.00
Description: as §1, §2

[9] = system: NFK (nuclear factor kappa B); assay: Kidney NFK levels in type-1 diabetes induced rats; assay type: in vivo, Wistar rats; settings: bands, STZ rats, n = 7; control = 100.00
[10] = system: NFK (nuclear factor kappa B); assay: Brain NFK levels in type-1 diabetes induced rats; assay type: in vivo, Wistar rats; settings: bands, STZ rats, n = 7; control = 100.00
Description: as §1, §2

Tryptophan = assay: Brain tryptophan in type-1 diabetes induced rats; assay type: in vivo, Wistar rats; settings: STZ rats, n = 7; footnote: daily for 8 weeks
HNE = assay: Hippocampus HNE expression in insulin-induced hypoglycemic rats; settings: 15 U insulin/kg i.p., 110 μg/kg/day, one week, mean ± s.d.
Description: (§3) In order to evaluate chromium's potential protective effects preventing insulin-induced hypoglycemia, animals were administered insulin to induce hypoglycemia, and markers of hypoglycemic brain damage were compared in animals with and without administration of chromium.
(§4) Briefly, hypoglycemia was induced in Sprague-Dawley rats (males, 8-weeks old) by intraperitoneal injection of 15 U insulin/kg BW. The rats were separated into four groups of 15 rats each: (1) a control group not receiving insulin (“Control”); (2) a group not administered chromium (“Hypo”); (3) a group administered 110 μg/kg/day of chromium picolinate (CrPic); and, a group administered 110 μg/kg/day of chromium histidinate (CrHis). After one week of dosing, brains were removed from the sacrificed rats and analyzed for markers of hypoglycemic damage: GLUT-1; GLUT-3; Nrf2; GFAP; and HNE.

GLUT-1 [11] = assay: Brain GLUT-1 expression in insulin-induced hypoglycemic rats; settings: 15 U insulin/kg i.p., 110 μg/kg/day, one week, mean ± s.d.
Description: as §3, §4

GLUT-3 [12] = assay: Brain GLUT-3 expression in insulin-induced hypoglycemic rats; settings: 15 U insulin/kg i.p., 110 μg/kg/day, one week, mean ± s.d.
Description: as §3, §4

[13] = Serum glucose 0.5 hrs after insulin injection in insulin-induced hypoglycemic rats; assay type: in vivo, Sprague-Dawley rats; settings: 15 U insulin/kg i.p., 110 μg/kg/day chromium complex, one week, mean ± s.d.
Nrf2 = assay: Hippocampus Nrf2 expression in insulin-induced hypoglycemic rats; settings: 15 U insulin/kg i.p., 110 μg/kg/day, one week, mean ± s.d.
Description: as §3, §4

GFAP = assay: Hippocampus GFAP expression in insulin-induced hypoglycemic rats; settings: 15 U insulin/kg i.p., 110 μg/kg/day, one week, mean ± s.d.
Description: as §3, §4

Serotonin = assay: Brain serotonin in type-1 diabetes induced rats; assay type: in vivo, Wistar rats; parameters: unit not given here; settings: STZ rats, n = 7; footnote: daily for 8 weeks
[14] = Brain chromium levels in insulin-induced hypoglycemic rats; settings: 15 U insulin/kg i.p., 110 μg/kg/day, one week, mean ± s.d.
Description: as §3, §4

For `[O]=[Zn]` [STZ + Zn, zinc oxide], the “cerebral GLUT-1 expression” value (GLUT-1 [1]) was 46.82 ± 3.23^c, the “Kidney oct1” value [2] was 50.02 ± 2.05^d and the “Initial BW” value [3] was 195.43 ± 7.63 g. For the same molecule, the “BW Change” value [3] was −9.71 ± 4.03^bc %, the “Final BW” value [3] was 175.71 ± 7.67^bc g and the ALP [4] was 453 ± 11^b U/L. The ALT [4] was 143 ± 9^b U/L, the AST [4] was 328 ± 17^a U/L and the Albumin [4] was 2.59 ± 0.06^b g/dL. The CK [4] was 6872 ± 1248^b U/L, the Creatinine [4] was 1.05 ± 0.07^b mg/dL and the Glucose [4] was 456 ± 13^ab mg/dL. For the same molecule, the Insulin [4] was 20.9 ± 0.9^bc μU/mL, the K [4] was 5.53 ± 0.09^b mmol/L and the LDH [4] was 2564 ± 85^ab U/L. The Total protein [4] was 5.91 ± 0.07^b g/dL, the Urea [4] was 65.6 ± 1.0^b mg/dL and the Uric acid [4] was 6.49 ± 0.69^ab mg/dL. The “cerebral GLUT-3 expression” value (GLUT-3 [5]) was 43.41 ± 3.53^c, the “Glucose, Day 4, After” value [6] was 303 and the “Glucose, Day 6, After” value [6] was 372. The “Glucose, Day 12, After” value [6] was 412, the “Glucose, Day 21, After” value [6] was 329 and the “Glucose, Day 4, Before” value [6] was 457. The “Glucose, Day 6, Before” value [6] was 350, the “Glucose, Day 12, Before” value [6] was 421 and the “Glucose, Day 21, Before” value [6] was 380. The “Kidney oct2” value (OCT-2) was 51.38 ± 1.17^d, the Brain ins (insulin) was 44.08 ± 3.31^c and the “Brain Cr” value [7] was 9.05 ± 0.56^d ng/g. The “Serum Cr” value [7] was 33.65 ± 2.26^d mcg/g, the “Kidney mrp2” value [8] was 148.73 ± 2.74^b and the Kidney nfk [9] was 120.31 ± 1.65^b. For the same molecule, the Brain nfk [10] was 150.59 ± 2.73^b and the “Brain Tryptophan” value (Tryptophan) was 4.54 ± 0.23^d mcg/g.

With chromium picolinate [CrPic] the “Hippocampus HNE Expression” value (HNE) was 162.5 ± 12.4 % Control, the “Cerebellum GLUT-1 Expression” value (GLUT-1 [11]) was 75.6 ± 7.6 % Control and the “Cortex GLUT-1 Expression” value (GLUT-1 [11]) was 122.8 ± 1.3 % Control. The “Hippocampus GLUT-1 Expression” value (GLUT-1 [11]) was 102.3 ± 5.5 % Control, the “Cerebellum GLUT-3 Expression” value (GLUT-3 [12]) was 206.3 ± 6.4 % Control and the “Cortex GLUT-3 Expression” value (GLUT-3 [12]) was 319.5 ± 14.6 % Control. For the same molecule, the “Hippocampus GLUT-3 Expression” value (GLUT-3 [12]) was 198.6 ± 8.9 % Control, the “Serum Glucose at 0.5 hrs” value [13] was 40.7 ± 5.2 mg/dL and the “Hippocampus Nrf2 Expression” value (Nrf2) was 38.9 ± 3.6 % Control. The “Hippocampus GFAP Expression” value (GFAP) was 251.2 ± 9.1 % Control.

In the case of chromium histidinate [CrHis], the “cerebral GLUT-1 expression” value (GLUT-1 [1]) was 53.81 ± 3.53^c, the “Kidney oct1” value [2] was 50.90 ± 1.71^d and the “Hippocampus HNE Expression” value (HNE) was 140.1 ± 12.0 % Control. The “Initial BW” value [3] was 195.43 ± 5.94 g, the “BW Change” value [3] was −10.17 ± 3.94^bc % and the “Final BW” value [3] was 176.57 ± 12.27^bc g. For the same molecule, the ALP [4] was 442 ± 13^bc U/L, the ALT [4] was 125 ± 12^bc U/L and the AST [4] was 291 ± 24^ab U/L. For the same molecule, the Albumin [4] was 2.74 ± 0.06^ab g/dL, the CK [4] was 6745 ± 934^b U/L and the Creatinine [4] was 0.90 ± 0.08^bc mg/dL. For the same molecule, the Glucose [4] was 423 ± 15^bc mg/dL, the Insulin [4] was 22.0 ± 0.8^bc μU/mL and the K [4] was 5.57 ± 0.12^b mmol/L. For the same molecule, the LDH [4] was 2367 ± 52^b U/L, the Total protein [4] was 6.07 ± 0.12^b g/dL and the Urea [4] was 62.1 ± 2.5^bc mg/dL. The Uric acid [4] was 6.21 ± 0.57^b mg/dL, the “Cerebellum GLUT-1 Expression” value (GLUT-1 [11]) was 83.0 ± 4.2 % Control and the “Cortex GLUT-1 Expression” value (GLUT-1 [11]) was 99.9 ± 7.3 % Control. For the same molecule, the “Hippocampus GLUT-1 Expression” value (GLUT-1 [11]) was 103.7 ± 2.8 % Control, the “cerebral GLUT-3 expression” value (GLUT-3 [5]) was 49.41 ± 2.39^c and the “Brain Serotonin” value (Serotonin) was 512 ± 7. The “Glucose, Day 4, After” value [6] was 237, the “Glucose, Day 6, After” value [6] was 349 and the “Glucose, Day 12, After” value [6] was 349. The “Glucose, Day 21, After” value [6] was 303, the “Glucose, Day 4, Before” value [6] was 403 and the “Glucose, Day 6, Before” value [6] was 330. For the same molecule, the “Glucose, Day 12, Before” value [6] was 340, the “Glucose, Day 21, Before” value [6] was 368 and the “Kidney oct2” value (OCT-2) was 53.50 ± 1.13^d. The “Cerebellum GLUT-3 Expression” value (GLUT-3 [12]) was 166.9 ± 2.2 % Control, the “Cortex GLUT-3 Expression” value (GLUT-3 [12]) was 287.5 ± 31.3 % Control and the “Hippocampus GLUT-3 Expression” value (GLUT-3 [12]) was 177.8 ± 4.7 % Control. The Brain ins (insulin) was 47.89 ± 4.67^c, the “Serum Glucose at 0.5 hrs” value [13] was 42.6 ± 6.8 mg/dL and the “Brain Cr” value [7] was 11.87 ± 0.89^c ng/g. The “Serum Cr” value [7] was 48.64 ± 2.70^c mcg/g, the “Hippocampus Nrf2 Expression” value (Nrf2) was 61.8 ± 1.4 % Control and the “Kidney mrp2” value [8] was 140.21 ± 2.05^b. The Kidney nfk [9] was 118.86 ± 1.47^b, the Brain nfk [10] was 134.24 ± 4.10^b and the “Brain Tryptophan” value (Tryptophan) was 4.74 ± 0.36^d mcg/g. The “Brain Cr Levels” value [14] was 21.6 ± 1.7 ng/g and the “Hippocampus GFAP Expression” value (GFAP) was 204.9 ± 4.9 % Control.
